{"source": "paper PMC13503280", "about": "“A pharmacological modality to sequester homomeric proteins” (Nature Chemical Biology, 2026)", "key": {"recombinant Keap1 BTB [1]": {"system": "recombinant Keap1 BTB", "experiment": "DLS of recombinant Keap1 BTB domain", "assay_type": "biochemical", "conditions": "50 µM protein, 50 µM compound", "description": "(§1) DLS samples were prepared in the respective protein’s elution buffer, to which 0.01% Tween was added, along with the compound from a DMSO stock to obtain a final DMSO concentration of 2%. Samples were prepared at room temperature and measured at a constant temperature of 25 °C. All samples were passed through 0.1-μm filters and then placed in a clear-bottom black 384-well plate. DLS data were recorded using a DynaproPlate Reader III (Wyatt Technology). Data were processed with the supplied DYNAMICS software."}, "recombinant Keap1 BTB [2]": {"target": "T1, recombinant Keap1 BTB (Homo sapiens, UniProt Q14145, S172A)", "T1 construct": "The Keap1 BTB domain (48–180) encoding the single substitution S172A was cloned into pET28-bdSumo vector; His–bdSumo (N, cleaved yes); made in house; host or cells: E. coli BL21(DE3)", "T1 sequence (Q14145 48-180 S172A)": "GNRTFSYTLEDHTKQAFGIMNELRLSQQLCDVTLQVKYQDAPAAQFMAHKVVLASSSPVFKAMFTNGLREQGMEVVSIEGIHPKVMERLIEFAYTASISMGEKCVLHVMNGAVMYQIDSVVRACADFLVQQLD", "experiment": "DLS of recombinant Keap1 BTB domain", "assay_type": "biochemical", "conditions": "50 μM Keap1 BTB, 50 μM compound, room temperature, over time", "description": "as §1"}, "Keap1 [3]": {"target": "T2, Keap1 (Homo sapiens, UniProt Q14145)", "T2 sequence (Q14145 whole entry)": "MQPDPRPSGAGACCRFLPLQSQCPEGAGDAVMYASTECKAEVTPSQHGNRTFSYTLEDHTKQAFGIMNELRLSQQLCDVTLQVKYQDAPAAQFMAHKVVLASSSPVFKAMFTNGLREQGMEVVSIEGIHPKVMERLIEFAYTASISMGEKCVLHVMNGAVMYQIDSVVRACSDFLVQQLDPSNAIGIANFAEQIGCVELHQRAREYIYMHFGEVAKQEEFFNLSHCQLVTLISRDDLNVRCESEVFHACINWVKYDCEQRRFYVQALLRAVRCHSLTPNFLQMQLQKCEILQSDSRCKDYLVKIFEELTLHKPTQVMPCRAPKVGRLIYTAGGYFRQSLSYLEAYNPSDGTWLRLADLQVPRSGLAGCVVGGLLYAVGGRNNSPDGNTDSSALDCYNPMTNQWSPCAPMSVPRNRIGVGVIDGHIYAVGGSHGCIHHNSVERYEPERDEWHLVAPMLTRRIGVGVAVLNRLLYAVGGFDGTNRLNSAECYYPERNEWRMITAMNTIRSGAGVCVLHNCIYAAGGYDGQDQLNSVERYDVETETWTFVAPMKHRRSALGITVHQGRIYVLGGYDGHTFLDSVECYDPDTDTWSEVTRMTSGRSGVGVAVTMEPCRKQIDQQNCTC", "experiment": "Immunostaining of endogenous Keap1 puncta in U2OS cells", "assay_type": "cell-based", "parameters": "We visualized the subcellular localization of endogenous Keap1 following PINCH treatment by immunofluorescence in U2OS cells; endogenous in cells; host or cells: U2OS (ATCC HTB-96)", "conditions": "250 nM", "description": "The cells were then blocked with 5% BSA for 60 min at room temperature. Cells were stained with primary antibody, at a concentration of 1:100, for 3 h at room temperature and were then subjected to a secondary antibody conjugated to Alexa Fluor, at a concentration of 1:100–500, for 1 h at room temperature. Lastly, cells were also stained with DAPI for 10 min at room temperature.\nImaging of the cells was performed using a Dragonfly spinning disk confocal system (Andor Technology) connected to an inverted Leica Dmi8 microscope (Leica Microsystems). The signals were detected using a scientific complementary metal–oxide–semiconductor Zyla (Andor) 2,048 × 2,048 camera and the bit depth was 16. At the specified intervals, Z stacks (0.17 µm) of selected cells were acquired with an HC PL APO ×63/1.3 GLYC CORR CS2 objective (506353, Leica Microsystems).\nAutomatic aggregate segmentation was conducted using the surface module with manual threshold fixed for all images of the same experiment (default 2-pixel smoothing, background subtraction with 0.9-μm largest sphere, morphological split with 0.5-μm seed point diameter). […]\nSpots were considered colocalized if their centers were up to 1 μm apart. We manually segmented each cell in 3D using the Surface module and quantified the number percentage and the total puncta volume percentage of colocalized spots for each cell."}, "U2OS cells": {"system": "U2OS cells", "experiment": "Viability measurements, U2OS cells", "assay_type": "cell-based", "description": "(§2) Cells were seeded in a transparent-bottom, black 96-well plate, at 15,000 cells per well in sixfold replications. in 90 µl of medium and left to adhere for at least 4 h. The cells were then treated with the respective compound by adding 10 µl of medium–-compound mixture for a final volume of 100 µl in each well. Cell-Titer blue reagent was used to measure viability according to the manufacturer’s instructions. Plate reader measurements were performed on a Tecan Spark Control 10 M fluorescence system."}, "Mino cells": {"system": "Mino cells", "experiment": "Viability measurements, Mino cells", "assay_type": "cell-based", "conditions": "Mino, 72 h", "description": "as §2"}, "[4]": {"system": "RAS GTPase-activating protein-binding protein 1", "experiment": "Colocalization with RAS GTPase-activating protein-binding protein 1 (stress granules)", "assay_type": "cell-based"}, "HEK 293 cells": {"system": "HEK 293 cells", "experiment": "Viability measurements, HEK 293 cells", "assay_type": "cell-based", "conditions": "HEK 293, 72 h", "description": "as §2"}, "Keap1 [5]": {"target": "T2, Keap1", "experiment": "Global proteomics of soluble lysate of U2OS cells", "assay_type": "cell-based", "conditions": "EL133 250 nM, 20 h, RIPA lysis, relative to control", "description": "Cells were incubated with DMSO at 0.1% or with compound for 20 h unless indicated differently, in quadruplicate. […] Samples were then reduced using DTT, followed by reaction with iodoacetamide. The labeled proteins were then precipitated on a dispersion of glass beads, followed by overnight trypsin digestion and purification of peptides. Samples were analyzed using an EASY-nLC 1200 nano-flow ultrahigh-performance LC system, equipped with a PepMap RSLC C18 column (particle size: 2 µm, pore size: 100 Å, diameter: 75 µm, length: 50 cm), mounted using an EASY-Spray source onto an Exploris 240 MS instrument. LC–MS-grade solvents were used for all chromatographic steps at 300 nl min^−1. The mobile phase consisted of solvent A (H2O + 0.1% formic acid) and solvent B (80% acetonitrile + 0.1% formic acid). Peptides were eluted from the column into the MS instrument using the following gradient: 1–40% B in 160 min, 40–100% B in 5 min, maintained at 100% for 20 min, 100–1% in 10 min and finally 1% for 5 min. […] Initially, data were acquired in data-independent acquisition mode. […] Four samples were analyzed per condition.\nData analysis was performed using Fragpipe[87],[88] […] Label-free quantification was performed using DIANN. After analysis, the quantified protein file was analyzed using Perseus[89]. […] Differences and P values were calculated using a double-sided Student’s t-test. […]"}}}
{"smiles": "CC1(C)CCC2(C(=O)NCCOCCOCCNC(=O)C34CCC(C)(C)CC3C3C(=O)C=C5C6(C)C=C(C#N)C(=O)C(C)(C)C6CCC5(C)C3(C)CC4)CCC3(C)C(C(=O)C=C4C5(C)C=C(C#N)C(=O)C(C)(C)C5CCC43C)C2C1", "note": "(stereo not drawn) [EL133]", "values": [{"measurement": "formation of large species with WT versus C151S Keap1 BTB (DLS)", "setting": "recombinant Keap1 BTB [1]", "value": "able to form large species in solution with the wild-type (WT) protein but not with the mutant"}, {"measurement": "formation of large species (DLS)", "setting": "recombinant Keap1 BTB [2]", "value": "large molecular species forming"}, {"measurement": "Keap1 puncta (immunofluorescence)", "setting": "Keap1 [3]", "value": "bright punctate structures"}, {"measurement": "difference in viability IC50 over BDX", "setting": "U2OS cells", "value": "threefold"}, {"measurement": "IC50", "setting": "U2OS cells; Homo sapiens, 72 h", "value": 254, "unit": "nM"}, {"measurement": "additional viability loss compared with BDX", "setting": "Mino cells", "value": "no additional viability loss"}, {"measurement": "formation of stress granules", "setting": "[4]", "value": "does not induce the formation of its characteristic stress granules"}, {"measurement": "additional viability loss compared with BDX", "setting": "HEK 293 cells", "value": "no additional viability loss"}, {"measurement": "Keap1 level in soluble fraction (quantitative proteomics)", "setting": "Keap1 [5]", "value": "significantly downregulated"}]}
